Assay results as given in patent US20250313572A1, “MACROCYCLIC MCL-1 INHIBITORS AND METHODS OF USE” (AbbVie Inc., priority 2017, published 2025).
Like-named read-outs stand apart in the source and are kept apart here. Marks after values point to notes of the source that are not given here.

Key:
AMO-1 xenograft = AMO-1 xenograft model of multiple myeloma; type: in vivo, female SCID/bg mice; settings: 25 mg/kg/day, IP/QDx1
Procedure: Tumors were size matched at approximately 200 mm^3. […] Tumor volume was estimated two to three times weekly. […] Seven or eight mice were housed per cage. Food and water were available ad libitum.
Tumor growth inhibition is calculated by 100*(1−Tv/Cv) where Tv and Cv are the mean tumor volumes of the treated and control groups, respectively.

[1] = test system: AMO-1 human multiple myeloma tumor cell line; test: AMO-1 cell viability assay (CellTiter-Glo, 24 hours); type: cell-based
GST-MCL-1 = GST-MCL-1 (Homo sapiens, UniProt Q07820); test: TR-FRET MCL-1 binding assay (competition with probe F-Bak)
Summary of the method: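 Test compounds, 11 three-fold dilutions from 25 μM final, incubated 2 hours at room temperature with GST-MCL-1, F-Bak probe and Tb-anti-GST antibody. TR-FRET read at 340/35 nm excitation with 520/525 and 495/510 nm emission. Run without human serum and with 10% HS.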

[2] = test system: NCI-H929 human multiple myeloma tumor cell line; test: NCI-H929 cell viability assay (CellTiter-Glo, 24 hours); type: cell-based
[3] = Homo sapiens, AMO1, 24 h, read-out: AMO-1 Viability IC50 (μM, 10% FBS), 10% FBS, 24 hours of compound treatment
[4] = MCL-1 Binding Ki (nM, 10% HS), in the presence of 10% HS (human serum)
[5] = without HS, read-out: MCL-1 Binding Ki
[6] = Homo sapiens, NCI-H929, 24 h, read-out: H929 Viability IC50 (μM, 10% FBS), 10% FBS, 24 hours of compound treatment

Chain of GST-MCL-1 (Q07820 whole entry): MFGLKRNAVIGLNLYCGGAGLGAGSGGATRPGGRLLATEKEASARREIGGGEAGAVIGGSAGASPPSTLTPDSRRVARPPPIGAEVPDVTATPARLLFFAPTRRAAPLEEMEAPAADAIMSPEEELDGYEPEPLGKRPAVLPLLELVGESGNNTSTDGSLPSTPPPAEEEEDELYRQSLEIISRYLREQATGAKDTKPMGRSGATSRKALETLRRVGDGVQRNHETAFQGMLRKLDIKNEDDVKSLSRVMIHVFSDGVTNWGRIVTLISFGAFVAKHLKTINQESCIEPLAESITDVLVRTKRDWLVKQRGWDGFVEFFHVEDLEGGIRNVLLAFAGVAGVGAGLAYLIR

Row | SMILES | TGD (%) (AMO-1 xenograft) | TGImax (%) (AMO-1 xenograft) | IC50 [1, 3] | Ki (GST-MCL-1; [4]) | Ki (GST-MCL-1; [5]) | IC50 [2, 6] | IC50 ([1]; read-out: AMO-1 Viability IC50 (μM, 10% FBS), 10% FBS, 24 hours of compound treatment) | IC50 ([2]; read-out: H929 Viability IC50 (μM, 10% FBS), 10% FBS, 24 hours of compound treatment)
1 | COCCOCCOCCN1CCN(C[C@@H]2COc3ccc(OCc4ccnc(-c5ccccc5OC)n4)c(c3)C[C@H](C(=O)O)Oc3ncnc4sc(-c5ccc(F)cc5)c(c34)-c3ccc(c(Cl)c3C)O2)CC1 (atropisomer, axis not shown) [Example 5, (7R,16R,21S)-19-chloro-1-(4-fluorophenyl)-16-[(4-{2-[2-(2-methoxyethoxy)ethoxy]ethyl}piperazin-1-yl)methyl]-10-{[2-(2-methoxyphenyl)pyrimidin-4-yl]methoxy}-20-methyl-7,8,15,16-tetrahydro-18,21-etheno-13,9-(metheno)-6,14,17-trioxa-2-thia-3,5-diazacyclononadeca[1,2,3-cd]indene-7-carboxylic Acid] | 17* % | 55* % | 4 nM | 0.057 nM | 0.009 nM | 0.008 µM |  | 
2 | COCCOCCOCC1(F)CC=C(c2nccc(COc3ccc4cc3C[C@H](C(=O)O)Oc3ncnc5sc(-c6ccc(F)cc6)c(c35)-c3c(C)c(Cl)c(c(Cl)c3C)O[C@H](CN3CCN(C)CC3)CO4)n2)CC1 (single isomer, unassigned) [Example 87, (7R,16R)-19,23-dichloro-10-({2-[(4R*)-4-fluoro-4-{[2-(2-methoxyethoxy)ethoxy]methyl}cyclohex-1-en-1-yl]pyrimidin-4-yl}methoxy)-1-(4-fluorophenyl)-20,22-dimethyl-16-[(4-methylpiperazin-1-yl)methyl]-7,8,15,16-tetrahydro-18,21-etheno-13,9-(metheno)-6,14,17-trioxa-2-thia-3,5-diazacyclononadeca[1,2,3-cd]indene-7-carboxylic Acid] | 158* % | 99* % |  | 0.068 nM | 0.004 nM |  | 0.0959 nM | 0.000253 µM
3 | COCCOCCOCCOCCN1CCN(C[C@@H]2COc3ccc(OCc4ccnc(-c5ccccc5OC)n4)c(c3)C[C@H](C(=O)O)Oc3ncnc4sc(-c5ccc(F)cc5)c(c34)-c3ccc(c(Cl)c3C)O2)CC1 (atropisomer, axis not shown) [Example 4, (7R,16R,21S)-19-chloro-1-(4-fluorophenyl)-10-{[2-(2-methoxyphenyl)pyrimidin-4-yl]methoxy}-20-methyl-16-{[4-(2,5,8,11-tetraoxatridecan-13-yl)piperazin-1-yl]methyl}-7,8,15,16-tetrahydro-18,21-etheno-13,9-(metheno)-6,14,17-trioxa-2-thia-3,5-diazacyclononadeca[1,2,3-cd]indene-7-carboxylic Acid] | 33* % | 54* % | 7 nM | 0.052 nM | 0.007 nM | 0.011 µM |  | 
4 | COCCOCCOCCOCCOCCOCC1(C)CC=C(c2nccc(COc3ccc4cc3C[C@H](C(=O)O)Oc3ncnc5sc(-c6ccc(F)cc6)c(c35)-c3c(C)c(Cl)c(c(Cl)c3C)O[C@H](CN3CCN(C)CC3)CO4)n2)CC1 (single isomer, unassigned) [Example 84, (7R,16R)-19,23-dichloro-1-(4-fluorophenyl)-10-({2-[(4R*)-4-(2,5,8,11,14,17-hexaoxaoctadecan-1-yl)-4-methylcyclohex-1-en-1-yl]pyrimidin-4-yl}methoxy)-20,22-dimethyl-16-[(4-methylpiperazin-1-yl)methyl]-7,8,15,16-tetrahydro-18,21-etheno-13,9-(metheno)-6,14,17-trioxa-2-thia-3,5-diazacyclononadeca[1,2,3-cd]indene-7-carboxylic Acid] | 33* % | 71* % | 0.175 nM | 0.232 nM | 0.033 nM | 0.000528 µM |  | 
